Experiments:
yeast Topo I = assay: Toxicity in yeast overexpressing yeast Topo I (yTOP1) or ytop1-vac mutant; assay type: cell-based
Description: The strains are derived from the A364a genetic background, with the exception of BY4705, which is derived from the S288C background. Gene disruptions were generated by PCR fragment directed replacement (Baudin, et al., Nucleic Acids Research 21: 3329–30 (1993), Guldener, et al., Nucleic Acids Research 24: 2519–24 (1996)). Yeast overexpressing topoisomerase II was constructed by a PCR fragment directed promoter replacement of the topoisomerase II promoter with the yeast GPD promoter flanked upstream by the URA3 marker. All strains (except BY4705) bear the pleitropic drug sensitizing mutations erg6, pdr1, and pdr3 (Balzi, et al., Journal of Bioenergetics & Biomembranes 27: 71–6 (1995), Delaveau, et al, Molecular & General Genetics 244: 501–11 (1994), Gaber, et al., Molecular & Cellular Biology 9: 3447–56 (1989), Saunders, et al., Canadian Journal of Genetics & Cytology, 24: 493–503 (1982). Subik, et al, Current Genetics 10: 665–70 (1986)). The haploid yeast strain BY4705 (Brachmann, et al., Yeast 14: 115–32 (1998)) was used in the experiments described in FIG. 5. Plasmids expressing yeast or human topoisomerase I genes under the GAL promoter (Knab, et al., Journal of Biological Chemistry 268: 22322–30 (1993). Knab, et al., Journal of Biological Chemistry 270: 6141–8 (1995)) were transformed into BY4705 using standard procedures.
Yeast toxicity assays were performed essentially as follows: Exponentially growing cultures of the appropriate strains were diluted in synthetic complete media to a concentration of 7.4×10^4 cells/mL, and aliquots (135 μL) were transferred to each well of clear flat-bottomed 96 well plates. Compounds were added in duplicate or triplicate as 15 μL of the appropriate dilution in 5% DMSO. A 15 μL portion of 5% DMSO was added to control wells. […] Cell growth (OD660) in treated wells was plotted as a percentage of the growth in at least four averaged solvent control wells for the same strain. Camptothecin sodium salt (camptothecin Na) was the agent used in all yeast assays as standard.
In this regard, the sensitivity of yeast strains overexpressing either human or yeast topoisomerase I genes (hTOP1 or yTOP1, respectively) under the control of the inducible GAL promoter (see, for example, Knab, et al., Journal of Biological Chemistry 268: 22322–30 (1993); and Knab, et al., Journal of Biological Chemistry 270: 6141–8 (1995)) were used. Additionally, the sensitivity of yeast overexpressing the Topo I-VAC mutant enzyme, containing two amino acid substitutions (htop1-vac and ytop1-vac) that render topoisomerase I insensitive to the action of camptothecin were also examined (see, for example, Knab, et al., Journal of Biological Chemistry 268: 22322–30 (1993); and Knab, et al., Journal of Biological Chemistry 270: 6141–8 (1995)).

Rat1a fibroblasts = assay: Effect of exposure time on toxicity in Rat1a fibroblasts; assay type: cell-based, rat; settings: for toxicity with a two hour exposure: additional experiments; for toxicity of four hour versus six hour exposure: total incubation 96 hours
Procedure: Cells were plated at a density of 500 cells per well in opaque 96 well plates (Packard) in a volume of 135 μL per well of the appropriate media. The plates were incubated overnight to allow cell adherence. Seven two-fold dilutions of the test compounds were added in a volume of 15 μL per well in triplicate, and 15 μL of media containing an appropriate concentration of DMSO was added to control wells in triplicate. Plates were incubated at 37° C. for 96 hours. The media was then replaced with 100 μL per well of the appropriate media containing 2 μCi/mL of (methyl-^3H) thymidine (Amersham Pharmacia Biotech), then plates were incubated for a further 24 hours at 37° C. Cells were washed three times with PBS, then 100 μL per well of scintillant was added (Microscint 20, Packard), and sealed plates were counted in a microplate reader (Packard Topcount). For suspension chicken cells, (methyl-^3H) thymidine was added directly to the drug-containing media at a concentration of 20 μCi/mL (comprising one tenth of the media volume) and incubated overnight. The suspension cells were transferred to a UniFilter GF/C plate (Packard) and washed with PBS in a plate washer (Packard). After drying, 25 μL per well of scintillant (Microscint 20, Packard) was added, and sealed plates were counted. Toxicity is expressed as a percentage of the control counts. For experiments involving shorter exposures to compounds, cells were grown in the presence of compound for the appropriate time, then the media was replaced with fresh drug-free media, and incubation continued for the remainder of 96 hours, followed by the normal tritiated thymidine uptake and washing protocol.

| Compound | toxicity in yeast overexpressing yTOP1-vac compared to vector control, cell survival by colony formation (yeast Topo I; colony formation after treatment) | effect of ytop1-vac (camptothecin-resistant mutant) overexpression on toxicity (yeast Topo I; relative OD660) | effectiveness of 96 hour exposure relative to four hour exposure (Rat1a fibroblasts) | toxicity with a two hour exposure (Rat1a fibroblasts) | toxicity of four hour versus six hour exposure (Rat1a fibroblasts) |
| --- | --- | --- | --- | --- | --- |
| O=c1c(Cl)c(Cl)cnn1CCCl [compound IIa] | is accentuated | effective with both yTOP1 and ytop1-vac | three- to five-fold | nearly full toxicity | equally effective |
| O=C(CCl)Nc1ccc(C(=O)N/N=C/c2ccc(Cl)cc2)cc1 [compound Ia] |  |  | three- to five-fold | nearly full toxicity | equally effective |

From patent US7173063B1, “Topoisomerase poisons for the treatment of proliferative disorders” (Fred Hutchinson Cancer Research Center, priority 2000, dated 2007)
